# Reference: PMC9119314 (Frontiers in Pharmacology, 2022)
# Legend:
# [1] = system: P. falciparum gametocytes; parameters: method as in Forkuo et al., 2017; details: ref Forkuo et al., 2017; read-out: IC50 against gametocytes, previous data; cited from earlier work
# [2] = system: P. falciparum 3D7; assay: In vitro antiplasmodial activity, P. falciparum 3D7 (SYBR Green I); format: cell-based; details: Plasmodium falciparum; chloroquine-sensitive strain 3D7, 48 h; read-out: Activity against P. falciparum 3D7, IC50
# Procedure: (§1) P. falciparum (3D7 clone) and P. knowlesi (A1-H.1 clone) were maintained in culture in RPMI 1640 supplemented with 25 mM HEPES, 25 mM NaHCO3, 10 mM D-glucose, 2 mM L-glutamine, 50 mg/L hypoxanthine, 25 mg/L gentamicin sulfate, 5 g/L Albumax II, and 10% (v/v) equine serum (Thermo Fisher Scientific, 26-050-088). The P. falciparum (3D7) and P. knowlesi (A1-H.1) parasites were grown in human A^+ red blood cells (National Health Blood and Transplant, United Kingdom). The parasites were incubated in sealed flasks at 37°C under a culture gas mixture of 96% N2, 3% CO2, and 1% O2. ([van Schalkwyk et al., 2019]). The compounds were initially dissolved in DMSO prior to diluting in RPMI. All experiments were initiated using unsynchronized parasites with both the parasitemia and hematocrit set to 1%. Drug susceptibility assays were set up in 96-well, flat-bottom microplates in a final volume of 200 μL, as described previously ([van Schalkwyk et al., 2017]). The controls were included for the background fluorescence (0% viability; parasites exposed to a supralethal 10 μM chloroquine concentration) and 100% growth (parasites in drug-free wells). The plates were incubated for one complete life cycle (27 h for P. knowlesi or 48 h for P. falciparum in vitro) at 37°C in a modular incubation chamber (Billups-Rothenburg Inc.) under the culture gas. Upon termination of the assay, the plates were stored at −20°C overnight. The SYBR Green I fluorescent method was used to measure parasite survival ([Bennett et al., 2004]; [Smilkstein et al., 2004]). After the microplates were thawed, 100 μL from each well was transferred into a duplicate plate. To this was added 100 μL of SYBR green solution [SYBR Green I (Thermo Fisher Scientific, S7563), diluted 1:5000 in a lysis buffer made of 20 mM Tris, 5 mM EDTA, 0.008% (w/v) saponin, 0.08% (v/v) Triton X-100, pH 7.5]. The plates were stored in the dark for 1 h before fluorescence was read at a 490 nm excitation wavelength and a 520 nm emission wavelength on a Spectramax M3 microplate reader (Molecular Devices) ([van Schalkwyk et al., 2017]). The background fluorescence (wells with parasites at 0% viability) was subtracted from all drug assay wells, and the parasite proliferation was determined as a percentage of the fluorescence in the drug-free control wells.
# [3] = system: A2780/cis cells; assay: Chemosensitivity MTT assay, cisplatin-resistant A2780/CIS; format: cell-based, human; details: Homo sapiens, A2780cis, 96 h, ± SE, read-out: Activity against A2780/cis cells, IC50
# Procedure: (§2) The chemosensitivity of compounds 3–6 was assessed in the wild-type immortalized human ovarian adenocarcinoma cell line A2780 and its daughter cell lines, which are resistant to the standard cancer chemotherapeutics doxorubicin (A2780/ADR) and cisplatin (A2780/CIS, all cell lines from ECACC, Salisbury, United Kingdom). A modified MTT assay was used ([Shnyder et al., 2008]). Cells (2 × 10^4/ml) were inoculated into each well of a 96-well plate and incubated for 24 h at 37°C in a humidified atmosphere containing 5% CO2. Compounds were then added at a range of concentrations to each well, and the plates were then incubated for a further 96 h. After 96 h, the culture medium was removed and 200 μL of 0.5 mg ml^–1 MTT solution (Sigma) in the complete medium was added to each well. Following a further 4 h incubation, the solution was removed from each well and 150 μL of DMSO was added to solubilize the formazan crystals resulting from MTT conversion. The absorbance values for the resulting solutions were read at 540 nm on an Azure 96-well microplate reader (Azure Biosynstems Inc.), and the cell survival was calculated as the absorbance of treated cells divided by the control.
# [4] = system: P. knowlesi A1-H.1; assay: In vitro antiplasmodial activity, P. knowlesi A1-H.1 (SYBR Green I); format: cell-based, Plasmodium knowlesi; details: Plasmodium knowlesi, 27 h, read-out: Activity against P. knowlesi A1-H.1, IC50, 27 h, ± SD
# Procedure: as §1
# [5] = system: A2780/ADR cells; assay: Chemosensitivity MTT assay, doxorubicin-resistant A2780/ADR; format: cell-based; details: Homo sapiens, 96 h, ± SE, read-out: Activity against A2780/ADR cells, IC50
# Procedure: as §2, with “A” for “The chemosensitivity of compounds 3–6 was assessed in the wild-type immortalized human ovarian adenocarcinoma cell line A2780 and its daughter cell lines, which are resistant to the standard cancer chemotherapeutics doxorubicin (A2780/ADR) and cisplatin (A2780/CIS, all cell lines from ECACC, Salisbury, United Kingdom). A”
# [6] = system: P. berghei; details: P. berghei in mice, oral, 50 mg/kg/day; ref Wright et al., 1996; cited from earlier work
# [7] = system: A2780/WT cells; assay: Chemosensitivity MTT assay, A2780 wild type; format: cell-based, human; details: Homo sapiens, A2780, 96 h, ± SE, read-out: Activity against A2780/WT cells, IC50
# Procedure: as §2
# [8] = system: P. falciparum (NF54-Mal8p1.16-GFP-Luc) late-stage gametocytes; assay: microbe, parasite or virus in culture; format: cell-based, Plasmodium falciparum; details: Plasmodium falciparum, NF54, 48 h, read-out: Activity against late-stage gametocytes IC50
# Procedure: Gametocytes were produced as per [Reader et al. (2015]; [2021)] from P. falciparum NF54-Mal8p1.16-GFP-Luc ([Adjalley et al., 2011]), and each batch was validated for viability and functionality before use. […] Drug assays were set up on day 10 (representing late gametocytes, >90% stage IV/V gametocytes) using a 2–3% gametocytemia, 1.5% hematocrit culture. The drug pressure was for 48 h under stationary, hypoxic conditions (90% N2, 5% O2, and 5% CO2) at 37°C. Luciferase activity was determined in 30 μL parasite lysates by adding 30 μL luciferin substrate (Promega Luciferase Assay System) at room temperature and detection of resultant bioluminescence at an integration constant of 10 s with the GloMax®-Multi + Detection System with Instinct® Software. Methylene blue (5 μM) and an internal control (MMV390048, 5 μM) were routinely included as controls.
# [9] = system: T. brucei bloodstream forms (strain 427, derivative 221); details: ref Oluwafemi et al. 2009; read-out: Activity against T. brucei IC50; cited from earlier work
# [10] = system: P. falciparum K1; assay: In vitro antiplasmodial activity, P. falciparum K1 (lactate dehydrogenase assay); format: cell-based, Plasmodium falciparum; details: Plasmodium falciparum; chloroquine-resistant strain K1, 48 h, mean ± SE; read-out: Activity against P. falciparum K1, IC50
# Procedure: P. falciparum (K1 clone) was maintained in human erythrocytes prepared from the donated blood samples (blood groups unknown, Ethical Tissue, University of Bradford), suspended in the RPMI 1640 medium as previously described ([Wright et al., 2001]), except that serum was replaced with Albumax II, [5% (^w/v)]. […] Twofold serial dilutions were made in 96-well microtiter plates in duplicate, and infected erythrocytes were added to give a final volume of 100 µL with 2.5% hematocrit and 1% parasitemia. Chloroquine diphosphate was used as a positive control, and uninfected and infected erythrocytes without compounds were included in each test. The plates were placed into a modular incubator; gassed with 93% nitrogen, 3% oxygen, and 4% carbon dioxide; and incubated at 37°C for 48 h. The parasite growth was assessed by measuring lactate dehydrogenase activity as described by [Makler et al. (1993)]. The reagent used contained the following in each mL: acetylpyridine adenine dinucleotide (APAD), 0.74 mg; lithium lactate, 19.2 mg; diaphorase, 0.1 mg; Triton X-100, 2 μL; nitroblue tetrazolium, 1 mg; and phenazine ethosulphate, 0.5 mg. Fifty microliter of this reagent was added to each well and mixed; plates were incubated for 15 min at 37°C. The optical densities were read at 550 nm using an Azure 96-well microplate reader (Azure Biosystems Inc.), and % inhibition of growth was calculated by comparison with the control values. IC50 values were determined using linear regression analysis (Microsoft Excel). A minimum of three separate determinations was carried out for each compound.
smiles,measurement,setting,value
"Cn1c2c3ccccc3nc-2cc2ccccc21 [Compound 1, cryptolepine]",IC50,[1],1970 nM
same,IC50,[2],460 ± 40 nM
same,IC50,[3],670 ± 390 nM
same,IC50,[4],1040 ± 23 nM
same,IC50,[5],1270 ± 600 nM
same,Suppression of parasitemia compared to untreated infected controls,[6],80.5%
same,IC50,[7],440 ± 200 nM
same,IC50,[8],2400 ± 300 nM
same,IC50,[9],306 nM
same,IC50,[10],440 ± 220 nM
